Data from US7902227B2, “C-7 isoxazolinyl quinolone / naphthyridine derivatives useful as antibacterial agents” (Janssen Pharmaceutica NV., priority 2008, dated 2011).
Converted amounts (≈) assume the structure as drawn.

Legend:
Assay type in all cases: cell-based
[1] = test system: Staphylococcus aureus OC4172; assay: In vitro antibacterial activity (MIC), microdilution broth method (NCCLS), strain A; details: cation adjusted Mueller-Hinton broth, 35° C., 16-20 hours
Procedure: (§1) Minimal inhibitory concentration (MIC) has been an indicator of in vitro antibacterial activity widely used in the art. The in vitro antimicrobial activity of representative compounds of the present invention was determined by the microdilution broth method following the test method from the National Committee for Clinical Laboratory Standards (NCCLS). This method is described in the NCCLS Document M7-A4, Vol. 17, No. 2, “Methods for Dilution Antimicrobial Susceptibility Test for Bacteria that Grow Aerobically—Fourth Edition”, which is incorporated herein by reference.
(§2) In this method two-fold serial dilutions of drug in cation adjusted Mueller-Hinton broth are added to wells in microdilution trays. The test organisms are prepared by adjusting the turbidity of actively growing broth cultures so that the final concentration of test organism after it is added to the wells is approximately 5×10^4 CFU/well.
(§3) Following inoculation of the microdilution trays, the trays are incubated at 35° C. for 16-20 hours and then read. […] The amount of growth in the wells containing the test compound is compared with the amount of growth in the growth-control wells (no test compound) used in each tray. As set forth in Table 4, representative compounds of the present invention were tested against a variety of pathogenic bacteria resulting in a range of activities depending on the organism tested.

[2] = test system: strain C, fluoroquinolone-resistant clinical isolate of Streptococcus pneumoniae; assay: In vitro antibacterial activity (MIC), microdilution broth method (NCCLS), strain C; details: read-out: In vitro Antibacterial Activity MIC, C
Procedure: as §1, §2, §3

[3] = test system: strain D, fluoroquinolone-resistant clinical isolate of Streptococcus pneumoniae; assay: In vitro antibacterial activity (MIC), microdilution broth method (NCCLS), strain D; details: read-out: In vitro Antibacterial Activity MIC, D
Procedure: as §1, §2, §3

[4] = test system: Streptococcus pneumoniae ATCC 49619; assay: In vitro antibacterial activity (MIC), microdilution broth method (NCCLS), strain E; details: ATCC49619, 35° C., 16-20 hours
Procedure: as §1, §2, §3

[5] = test system: strain B, fluoroquinolone-resistant clinical isolate of Streptococcus pneumoniae; assay: In vitro antibacterial activity (MIC), microdilution broth method (NCCLS), strain B; details: read-out: In vitro Antibacterial Activity MIC, B
Procedure: as §1, §2, §3

COc1ccc(C2=NO[C@H]3CN(c4c(F)cc5c(=O)c(C(=O)O)cn(C6CC6)c5c4OC)C[C@@H]23)cc1 (relative stereo) [ID No. 120, 7-[cis-3-(4-Methoxyphenyl)-3a,4,6,6a-tetrahydropyrrolo[3,4-d]isoxazol-5-yl]-1-cyclopropyl-8-methoxy-6-fluoro-4-oxo-1,4-dihydroquinoline-3-carboxylic acid]
MIC [1]: 0.06 µg/mL (≈ 0.122 µM) | MIC [2]: 4 µg/mL (≈ 8.11 µM) | MIC [3]: 2 µg/mL (≈ 4.05 µM) | MIC [4]: 1 µg/mL (≈ 2.03 µM)

O=C(O)c1cn(-c2ccc(F)cc2F)c2nc(N3CC4ON=C(CN5C(=O)c6ccccc6C5=O)C4C3)c(F)cc2c1=O (stereo not shown) [ID No. 108, 1-(2,4-Difluoro-phenyl)-7-[3-(1,3-dioxo-1,3-dihydro-isoindol-2-ylmethyl)-3a,4,6,6a-tetrahydro-pyrrolo[3,4-d]isoxazol-5-yl]-6-fluoro-4-oxo-1,4-dihydro-[1,8]naphthyridine-3-carboxylic acid]
MIC [1]: 0.25 µg/mL (≈ 0.424 µM) | MIC [5]: > 16 µg/mL | MIC [2]: > 16 µg/mL | MIC [3]: > 16 µg/mL | MIC [4]: 8 µg/mL (≈ 13.6 µM)

O=C(O)c1cn(C2CC2)c2nc(N3CC4ON=C(c5ccc(Cl)cc5)C4C3)c(F)cc2c1=O (stereo not shown) [ID No. 110, 7-[3-(4-Chloro-phenyl)-3a,4,6,6a-tetrahydro-pyrrolo[3,4-d]isoxazol-5-yl]-1-cyclopropyl-6-fluoro-4-oxo-1,4-dihydro-[1,8]naphthyridine-3-carboxylic acid]
MIC [1]: 0.06 µg/mL (≈ 0.128 µM) | MIC [2]: 8 µg/mL (≈ 17.1 µM) | MIC [4]: 0.5 µg/mL (≈ 1.07 µM)

COc1ccc(C2=NOC3CN(c4nc5c(cc4F)c(=O)c(C(=O)O)cn5-c4ccc(F)cc4F)CC23)cn1 (stereo not shown) [ID No. 102, 1-(2,4-Difluoro-phenyl)-6-fluoro-7-[3-(6-methoxy-pyridin-3-yl)-3a,4,6,6a-tetrahydro-pyrrolo[3,4-d]isoxazol-5-yl]-4-oxo-1,4-dihydro-[1,8]naphthyridine-3-carboxylic acid]
MIC [1]: 0.06 µg/mL (≈ 0.112 µM) | MIC [5]: 4 µg/mL (≈ 7.44 µM) | MIC [2]: 16 µg/mL (≈ 29.8 µM) | MIC [3]: 2 µg/mL (≈ 3.72 µM) | MIC [4]: 1 µg/mL (≈ 1.86 µM)

CCOC(=O)C1=NOC2CN(c3nc4c(cc3F)c(=O)c(C(=O)O)cn4C3CC3)CC12 (stereo not shown) [ID No. 116, 1-Cyclopropyl-7-(3-ethoxycarbonyl-3a,4,6,6a-tetrahydro-pyrrolo[3,4-d]isoxazol-5-yl)-6-fluoro-4-oxo-1,4-dihydro-[1,8]naphthyridine-3-carboxylic acid]
MIC [1]: 0.12 µg/mL (≈ 0.279 µM) | MIC [5]: > 16 µg/mL | MIC [2]: > 16 µg/mL | MIC [3]: > 16 µg/mL | MIC [4]: 4 µg/mL (≈ 9.29 µM)

C[C@H]1COc2c(N3CC4ON=C(c5cccnc5)C4C3)c(F)cc3c(=O)c(C(=O)O)cn1c23 (stereo partly drawn) [ID No. 130, 7-[cis-3-(3-pyridyl)-3a,4,6,6a-tetrahydropyrrolo[3,4-d]isoxazol-5-yl]S-(−)-9,10-difluoro-2,3-dihydro-3-methyl-7-oxo-7H-pyrido-[1,2,3-de][1,4]-benzoxazine-6-carboxylic acid]
MIC [1]: 0.25 µg/mL (≈ 0.555 µM) | MIC [2]: 16 µg/mL (≈ 35.5 µM) | MIC [3]: 16 µg/mL (≈ 35.5 µM) | MIC [4]: 2 µg/mL (≈ 4.44 µM)

COc1ccc(C2=NOC3CN(c4c(F)cc5c(=O)c(C(=O)O)cn(-c6nc(N)c(F)cc6F)c5c4Cl)CC23)cc1 (stereo not shown) [ID No. 133, 1-(6-Amino-3,5-difluoro-pyridin-2-yl)-8-chloro-6-fluoro-7-[3-(4-methoxy-phenyl)-3a,4,6,6a-tetrahydro-pyrrolo[3,4-d]isoxazol-5-yl]-4-oxo-1,4-dihydro-quinoline-3-carboxylic acid]
MIC [1]: 0.25 µg/mL (≈ 0.427 µM) | MIC [2]: 8 µg/mL (≈ 13.7 µM) | MIC [3]: 16 µg/mL (≈ 27.3 µM) | MIC [4]: 2 µg/mL (≈ 3.41 µM)

O=C(O)c1cn(-c2ccc(F)cc2F)c2nc(N3CC4ON=C(c5ccc(Cl)cc5)C4C3)c(F)cc2c1=O (stereo not shown) [ID No. 101, 7-[3-(4-Chloro-phenyl)-3a,4,6,6a-tetrahydro-pyrrolo[3,4-d]isoxazol-5-yl]-1-(2,4-difluoro-phenyl)-6-fluoro-4-oxo-1,4-dihydro-[1,8]naphthyridine-3-carboxylic acid]
MIC [1]: 0.06 µg/mL (≈ 0.111 µM) | MIC [5]: 1 µg/mL (≈ 1.85 µM) | MIC [2]: 2 µg/mL (≈ 3.7 µM) | MIC [3]: 4 µg/mL (≈ 7.4 µM) | MIC [4]: 1 µg/mL (≈ 1.85 µM)

O=C(O)c1cn(C2CC2)c2nc(N3CC4ON=C(c5ccncc5)C4C3)c(F)cc2c1=O (stereo not shown) [ID No. 115]
MIC [1]: 0.06 µg/mL (≈ 0.138 µM) | MIC [5]: 16 µg/mL (≈ 36.7 µM) | MIC [2]: 8 µg/mL (≈ 18.4 µM) | MIC [3]: 4 µg/mL (≈ 9.19 µM) | MIC [4]: 1 µg/mL (≈ 2.3 µM)

CCOC(=O)C1=NOC2CN(c3c(F)cc4c(=O)c(C(=O)O)cn(C5CC5)c4c3OC)CC12 (stereo not drawn) [ID No. 124, 7-[cis-3-(3-Ethoxycarbonyl)-3a,4,6,6a-tetrahydropyrrolo[3,4-d]isoxazol-5-yl]-1-cyclopropyl-8-methoxy-6-fluoro-4-oxo-1,4-dihydroquinoline-3-carboxylic acid]
MIC [1]: 0.25 µg/mL (≈ 0.544 µM) | MIC [5]: > 16 µg/mL | MIC [2]: > 16 µg/mL | MIC [3]: > 16 µg/mL | MIC [4]: 8 µg/mL (≈ 17.4 µM)

O=C(O)c1cn(-c2ccc(F)cc2F)c2nc(N3CC4ON=C(CO)C4C3)c(F)cc2c1=O (stereo not shown) [ID No. 107, 1-(2,4-Difluoro-phenyl)-6-fluoro-7-(3-hydroxymethyl-3a,4,6,6a-tetrahydro-pyrrolo[3,4-d]isoxazol-5-yl)-4-oxo-1,4-dihydro-[1,8]naphthyridine-3-carboxylic acid]
MIC [1]: 0.12 µg/mL (≈ 0.261 µM) | MIC [5]: > 16 µg/mL | MIC [2]: > 16 µg/mL | MIC [3]: > 16 µg/mL | MIC [4]: 2 µg/mL (≈ 4.34 µM)

COc1ccc(C2=NOC3CN(c4nc5c(cc4F)c(=O)c(C(=O)O)cn5C4CC4)CC23)cn1 (stereo not shown) [ID No. 111, 1-Cyclopropyl-6-fluoro-7-[3-(6-methoxypyridin-3-yl)-3a,4,6,6a-tetrahydro-pyrrolo[3,4-d]isoxazol-5-yl]-4-oxo-1,4-dihydro-[1,8]naphthyridine-3-carboxylic acid]
MIC [1]: 0.03 µg/mL (≈ 0.0645 µM) | MIC [5]: 8 µg/mL (≈ 17.2 µM) | MIC [2]: 4 µg/mL (≈ 8.59 µM) | MIC [3]: 2 µg/mL (≈ 4.3 µM) | MIC [4]: 0.5 µg/mL (≈ 1.07 µM)

COc1c(N2C[C@@H]3ON=C(c4ccc(C(F)(F)F)nc4)[C@@H]3C2)c(F)cc2c(=O)c(C(=O)O)cn(C3CC3)c12 (relative stereo) [ID No. 121, 7-[cis-3-(6-Trifluoromethyl-3-pyridyl)-3a,4,6,6a-tetrahydropyrrolo[3,4-d]isoxazol-5-yl]-1-cyclopropyl-8-methoxy-6-fluoro-4-oxo-1,4-dihydroquinoline-3-carboxylic acid]
MIC [1]: 0.25 µg/mL (≈ 0.47 µM) | MIC [5]: 0.16 µg/mL (≈ 0.3 µM) | MIC [2]: > 16 µg/mL | MIC [3]: 8 µg/mL (≈ 15 µM) | MIC [4]: 4 µg/mL (≈ 7.51 µM)

O=C(O)c1cn(C2CC2)c2nc(N3CC4ON=C(CO)C4C3)c(F)cc2c1=O (stereo not shown) [ID No. 117, 1-Cyclopropyl-6-fluoro-7-(3-hydroxymethyl-3a,4,6,6a-tetrahydro-pyrrolo[3,4-d]isoxazol-5-yl)-4-oxo-1,4-dihydro-[1,8]naphthyridine-3-carboxylic acid]
MIC [1]: 0.5 µg/mL (≈ 1.29 µM) | MIC [5]: 16 µg/mL (≈ 41.2 µM) | MIC [2]: 16 µg/mL (≈ 41.2 µM) | MIC [3]: 16 µg/mL (≈ 41.2 µM) | MIC [4]: 8 µg/mL (≈ 20.6 µM)

O=C(O)c1cn(C2CC2)c2cc(N3CC4ON=C(c5cccnc5)C4C3)c(F)cc2c1=O (stereo not shown) [ID No. 136, 1-Cyclopropyl-6-fluoro-7-[3-(pyridin-3-yl)-3a,4,6,6a-tetrahydro-pyrrolo[3,4-d]isoxazol-5-yl]-4-oxo-1,4-dihydro-quinoline-3-carboxylic acid]
MIC [1]: 0.06 µg/mL (≈ 0.138 µM) | MIC [5]: 8 µg/mL (≈ 18.4 µM) | MIC [2]: 4 µg/mL (≈ 9.21 µM) | MIC [3]: 8 µg/mL (≈ 18.4 µM) | MIC [4]: 1 µg/mL (≈ 2.3 µM)

COc1ccc(C2=NOC3CN(c4c(F)cc5c(=O)c(C(=O)O)cn([C@@H]6C[C@@H]6F)c5c4OC)CC23)cc1 (relative stereo) [ID No. 126, 7-[cis-3-(4-Methoxyphenyl)-3a,4,6,6a-tetrahydropyrrolo[3,4-d]isoxazol-5-yl]-1-[(1R,2S)-2-fluorocyclopropyl]-6-fluoro-8-methoxy-4-oxo-1,4-dihydro-quinoline-3-carboxylic acid]
MIC [1]: 0.03 µg/mL (≈ 0.0587 µM) | MIC [2]: 4 µg/mL (≈ 7.82 µM) | MIC [3]: 2 µg/mL (≈ 3.91 µM) | MIC [4]: 0.5 µg/mL (≈ 0.978 µM)

COc1c(N2CC3ON=C(CN)C3C2)c(F)cc2c(=O)c(C(=O)O)cn(C3CC3)c12 (stereo not shown) [ID No. 202]
MIC [1]: 0.06 µg/mL (≈ 0.144 µM) | MIC [2]: 16 µg/mL (≈ 38.4 µM) | MIC [3]: > 16 µg/mL | MIC [4]: 1 µg/mL (≈ 2.4 µM)

O=C(O)c1cn(C2CC2)c2nc(N3CC4ON=C(c5cccnc5)C4C3)c(F)cc2c1=O (stereo not shown) [ID No. 114, 1-Cyclopropyl-6-fluoro-4-oxo-7-(3-pyridin-3-yl-3a,4,6,6a-tetrahydro-pyrrolo[3,4-d]isoxazol-5-yl)-1,4-dihydro-[1,8]naphthyridine-3-carboxylic acid]
MIC [1]: 0.12 µg/mL (≈ 0.276 µM) | MIC [2]: 2 µg/mL (≈ 4.59 µM) | MIC [3]: 8 µg/mL (≈ 18.4 µM) | MIC [4]: 1 µg/mL (≈ 2.3 µM)

COc1ccc(C2=NOC3CN(c4c(F)cc5c(=O)c(C(=O)O)cn6c5c4OC[C@@H]6C)CC23)cc1 (stereo partly drawn) [ID No. 128, 7-[cis-3-(4-Methoxyphenyl)-3a,4,6,6a-tetrahydropyrrolo[3,4-d]isoxazol-5-yl]S-(−)-9,10-difluoro-2,3-dihydro-3-methyl-7-oxo-7H-pyrido-[1,2,3-de][1,4]-benzoxazine-6-carboxylic acid]
MIC [1]: 0.12 µg/mL (≈ 0.25 µM) | MIC [2]: 4 µg/mL (≈ 8.34 µM) | MIC [3]: 4 µg/mL (≈ 8.34 µM) | MIC [4]: 1 µg/mL (≈ 2.09 µM)

COc1c(N2CC3ON=C(CN)C3C2)c(F)cc2c(=O)c(C(=O)O)cn([C@@H]3C[C@@H]3F)c12 (stereo partly shown) [ID No. 203]
MIC [1]: 0.12 µg/mL (≈ 0.276 µM) | MIC [2]: > 16 µg/mL | MIC [3]: > 16 µg/mL | MIC [4]: 2 µg/mL (≈ 4.6 µM)

C[C@H]1COc2c(N3CC4ON=C(CN)C4C3)c(F)cc3c(=O)c(C(=O)O)cn1c23 (stereo partly shown) [ID No. 204]
MIC [1]: 0.25 µg/mL (≈ 0.621 µM) | MIC [2]: > 16 µg/mL | MIC [3]: > 16 µg/mL | MIC [4]: 16 µg/mL (≈ 39.8 µM)
